Laboratory results published in patent US20100273822A1, “Immediate release compositions and methods for delivering drug formulations using strong acid ion exchange resins” (priority 2009, published 2010).

Test: Dissolution test USP 31 NF 26 section 711, apparatus 1 baskets at 100 rpm
Type: physicochemical
Procedure: The release enhancing agent, CaCl2, was added to the capsule blend of the first sample while a second formulation was prepared as a control without the use of the release enhancing agent. Six capsules from each formulation were then tested for dissolution.
The test used followed USP 31 NF 26 section 711 using apparatus 1 baskets at 100 rpm (no enzymes). The media selected was simulated gastric (0.1N HCl) at a volume of 900 ml. One capsule was added to each dissolution vessel. At the 60 minute time point the baskets were removed without touching the contents and subsequently placed in dissolution vessels containing 900 ml of simulated intestinal fluid (pH of 6.8). Aliquots were drawn at 15, 30, 45, and 120 minutes. An equivalent amount of media was replaced in the dissolution vessel to account for the volume of the sample removed. The aliquots were filtered and subsequently analyzed using HPLC equipped with a UV detector.
The process that was used to create the resinate, filling the capsules and carrying out the dissolution test in this example was the same as described in Example 1 except that 60 mg of CaCl2 was used instead of 40 mg as in Example 1.

[Ca+2].[Cl-].[Cl-] [CaCl2]
effect of adding the release enhancing agent on release rate of dextromethorphan vs control formulation (Example 1, 40 mg CaCl2 in capsule with dextromethorphan IRP69 resinate): increased the release rate of dextromethorphan
effect of adding the release enhancing agent on release rate of dextromethorphan vs control formulation (Example 2, 60 mg CaCl2 in capsule with dextromethorphan IRP69 resinate): increased the release rate of dextromethorphan
